The supplement of paper PMC10307832

How the values were obtained:
Test in all cases: relative viability (nuclei count vs DMSO), 5 days (fraction); higher = more cells survive
Selisistat + Alpelisib = compound: C1CC(C2=C(C1)C3=C(N2)C=CC(=C3)Cl)C(=O)N [Selisistat] + Cc1nc(NC(=O)N2CCC[C@H]2C(N)=O)sc1-c1ccnc(C(C)(C)C(F)(F)F)c1 [Alpelisib] (partner 2 µM)
How it was run: (§1)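 Lung cancer cell lines, seeded in 1536-well plates, were treated the following day by pin tool with a single drug or with five library-drug doses (not always all listed) in √10 steps on top of a fixed anchor-drug dose. Cells were fixed and nuclei stained in one step after 5 days, and nuclei were counted. Relative viability is the nuclei count for treated wells divided by that for vehicle wells, reported as medians of duplicate plates.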

Selisistat + Olaparib = compound: C1CC(C2=C(C1)C3=C(N2)C=CC(=C3)Cl)C(=O)N [Selisistat] + O=C(c1cc(Cc2n[nH]c(=O)c3ccccc23)ccc1F)N1CCN(C(=O)C2CC2)CC1 [Olaparib] (partner 8 µM)
How it was run: as §1

Serdemetan + Bortezomib = compound: c1ccc2c(CCNc3ccc(Nc4ccncc4)cc3)c[nH]c2c1 [Serdemetan] + CC(C)C[C@H](NC(=O)[C@H](Cc1ccccc1)NC(=O)c1cnccn1)B(O)O [Bortezomib] (partner 0.002 µM)
How it was run: as §1

Serdemetan + Linsitinib = compound: c1ccc2c(CCNc3ccc(Nc4ccncc4)cc3)c[nH]c2c1 [Serdemetan] + C[C@]1(O)C[C@@H](c2nc(-c3ccc4ccc(-c5ccccc5)nc4c3)c3c(N)nccn32)C1 [Linsitinib] (partner 1 µM)
How it was run: as §1

Row | Cell Line | relative viability (Selisistat + Alpelisib; first compound 0.4 µM) | relative viability (Selisistat + Alpelisib; first compound 1.265 µM) | relative viability (Selisistat + Alpelisib; first compound 4 µM) | relative viability (Selisistat + Alpelisib; first compound 12.65 µM) | relative viability (Selisistat + Alpelisib; first compound 40 µM) | relative viability (Selisistat + Olaparib; first compound 0.4 µM) | relative viability (Selisistat + Olaparib; first compound 1.265 µM) | relative viability (Selisistat + Olaparib; first compound 4 µM) | relative viability (Selisistat + Olaparib; first compound 12.65 µM) | relative viability (Selisistat + Olaparib; first compound 40 µM) | relative viability (Serdemetan + Bortezomib; first compound 0.04 µM) | relative viability (Serdemetan + Bortezomib; first compound 0.1265 µM) | relative viability (Serdemetan + Bortezomib; first compound 0.4 µM) | relative viability (Serdemetan + Bortezomib; first compound 1.265 µM) | relative viability (Serdemetan + Bortezomib; first compound 4 µM) | relative viability (Serdemetan + Linsitinib; first compound 0.04 µM) | relative viability (Serdemetan + Linsitinib; first compound 0.1265 µM) | relative viability (Serdemetan + Linsitinib; first compound 0.4 µM) | relative viability (Serdemetan + Linsitinib; first compound 1.265 µM) | relative viability (Serdemetan + Linsitinib; first compound 4 µM)
1 | NCI-H1299 | 1.02 | 1.05 | 1.14 | 1.03 | 1.03 | 1.04 | 0.972 | 1 | 1.03 | 1.02 | 0.985 | 1.01 | 0.989 | 0.887 | 0.804 | 0.923 | 0.999 | 0.969 | 0.777 | 0.669
2 | NCI-H2228 | 0.721 | 0.687 | 0.587 | 0.691 | 0.647 | 0.637 | 0.656 | 0.523 | 0.741 | 0.702 | 1.34 | 1.02 | 0.974 | 0.404 | 0.301 | 0.806 | 0.68 | 0.519 | 0.59 | 0.397
3 | IA-LM | 0.882 | 0.79 | 0.545 | 0.74 | 0.696 | 0.899 | 0.897 | 0.849 | 0.802 | 0.806 | 0.846 | 0.854 | 0.784 | 0.535 | 0.324 | 0.549 | 0.679 | 0.537 | 0.394 | 0.388
4 | NCI-H647 | 1.1 | 1.03 |  | 1.09 | 1.31 | 0.622 | 0.577 | 0.736 | 0.48 | 0.591 | 0.95 | 0.914 | 0.95 | 0.559 | 0.47 | 1.06 | 1.11 | 1.11 | 0.944 | 0.982
5 | NCI-H2085 | 1.04 | 0.983 | 0.968 | 1.06 | 0.919 | 0.818 | 0.771 | 0.766 | 0.824 | 0.855 | 1.11 | 1.13 | 1.06 | 0.723 | 0.674 | 0.939 | 0.901 | 0.836 | 0.621 | 0.581
6 | SW 1573 | 0.703 | 0.884 | 0.716 | 0.804 | 0.864 | 0.4 | 0.462 | 0.505 | 0.639 | 0.505 | 0.931 | 1.01 | 0.892 | 0.308 | 0.242 | 0.81 | 0.769 | 0.738 | 0.346 | 0.258
7 | NCI-H727 | 0.553 | 0.714 |  |  | 0.458 | 0.737 | 0.635 | 0.631 | 0.655 | 0.687 | 0.923 | 1.01 | 1.03 | 0.557 | 0.431 | 0.286 | 0.238 | 0.28 | 0.124 | 0.191
8 | NCI-H441 | 0.804 | 0.64 |  | 0.691 | 0.707 | 0.49 | 0.51 | 0.582 | 0.504 | 0.534 | 0.459 | 0.784 | 0.906 | 0.569 | 0.643 | 0.454 | 0.608 | 0.532 | 0.289 | 0.325
9 | LOU-NH91 | 0.71 | 0.681 | 0.619 | 0.71 | 0.723 | 0.936 | 0.867 | 0.914 | 0.895 | 0.899 | 0.536 | 0.485 | 0.412 | 0.409 | 0.433 | 0.962 | 1.01 |  | 0.894 | 0.83
10 | NCI-H3122 | 0.743 | 0.694 | 0.407 | 0.873 | 0.748 | 0.661 | 0.661 |  | 0.556 | 0.649 | 1.03 | 0.955 | 1.06 |  | 1.08 | 1.09 | 0.946 | 1.05 |  | 1.07
11 | NCI-H460 | 0.517 | 0.54 |  | 0.403 | 0.35 | 0.452 | 0.404 |  | 0.319 | 0.403 | 1.05 | 1.1 | 1.19 | 0.561 | 0.1 | 0.747 | 0.71 | 0.537 | 0.153 | 0.104
12 | NCI-H650 | 1.38 |  | 1.47 | 1.06 | 1.15 | 0.51 | 0.379 | 0.496 | 0.382 | 0.3 | 0.673 | 0.679 | 0.872 | 0.674 | 0.848 | 0.681 | 0.922 | 0.883 | 0.737 | 0.688
13 | NCI-H661 | 0.766 | 0.675 | 0.555 | 0.508 | 0.546 | 0.739 | 0.713 | 0.781 | 0.667 | 0.577 | 0.78 | 0.909 | 0.766 | 0.84 | 0.74 | 0.521 | 0.635 | 0.606 | 0.563 | 0.418
14 | NCI-H1734 | 0.744 | 0.621 | 0.697 | 0.739 | 0.706 | 0.667 | 0.553 | 0.731 | 0.583 | 0.658 | 0.908 |  | 0.677 | 0.158 | 0.18 | 0.702 |  | 0.299 | 0.182 | 0.194
15 | LXF-289 | 1.13 | 1.04 | 0.989 | 1 | 0.984 | 1.1 | 1.03 | 0.96 | 0.966 | 1.04 | 0.954 | 1.01 | 0.944 | 0.951 | 0.894 | 0.953 | 0.95 | 0.863 | 0.785 | 0.765
16 | H3255 | 0.724 | 0.662 | 0.725 | 0.62 | 0.786 | 0.505 | 0.538 | 0.571 | 0.549 | 0.539 | 0.827 | 0.68 | 0.886 | 0.746 | 0.7 | 0.938 | 0.832 | 0.931 | 1.03 | 0.814
17 | 201T | 1.04 | 0.986 | 0.981 | 1.03 | 1.02 | 0.85 | 0.841 | 0.827 | 0.823 | 0.843 | 1.08 | 1.14 | 1.1 | 1.05 | 1.06 | 1.04 | 1.03 | 1.01 | 1.02 | 0.781
18 | NCI-H2126 | 0.812 | 0.77 | 0.758 | 0.863 | 0.81 | 0.981 | 0.922 | 0.904 | 0.921 | 0.934 | 1.12 | 1.12 | 1.11 | 0.934 | 1.12 | 0.745 | 0.736 | 0.638 | 0.642 | 0.686
19 | HOP-62 | 0.796 | 1.02 | 1.06 | 0.944 | 1 | 0.394 | 0.422 | 0.419 | 0.432 | 0.73 | 1.09 | 0.928 | 0.476 | 0.47 | 0.871 | 1.02 | 0.934 | 0.968 | 0.738 | 0.47
20 | CAL-12T | 1.29 | 1.07 | 1.14 | 1.16 | 1.19 | 0.765 | 0.675 | 0.689 | 0.782 | 0.769 |  | 1.11 |  | 0.931 | 1.04 | 0.77 | 0.793 | 0.698 | 0.864 | 0.651
21 | NCI-H520 | 0.762 | 0.736 | 1.07 | 0.957 | 0.73 | 0.413 | 0.317 | 0.364 | 0.344 | 0.319 | 0.752 | 0.561 | 0.615 | 0.476 | 0.572 | 0.973 | 1.02 | 0.817 | 0.808 | 0.774
22 | NCI-H1755 | 1.03 | 0.958 | 0.94 | 0.956 | 0.935 | 0.955 | 0.835 | 0.941 | 0.875 | 0.952 | 0.877 | 0.949 | 0.896 | 0.58 | 0.563 | 0.956 | 0.941 | 0.881 | 0.556 | 0.653
23 | NCI-H2023 | 0.594 | 0.52 | 0.608 | 0.59 | 0.592 | 0.555 | 0.443 | 0.523 | 0.413 | 0.435 | 0.74 | 0.985 | 0.9 | 0.485 | 0.28 | 0.708 | 0.766 | 0.613 | 0.601 | 0.253
24 | NCI-H2009 | 1.22 | 1.1 | 1.25 | 0.835 | 1.12 | 0.763 | 0.683 | 0.838 | 0.743 | 0.672 | 0.95 | 0.986 | 0.929 | 0.787 | 0.797 | 1.18 | 1.2 | 1.13 | 1 | 0.979
